In patent publication US8029553B2, “Portable laser and process for pain research” (priority 2004, dated 2011):
Entries after “also recorded” stand apart in the source; their conditions may differ.

Legend:
[1] = system: C fibers; assay: Threshold pulse duration for hot pain by 980 nm diode laser, stimulation of C fibers; type: in vivo, human; conditions: healthy volunteer affected by topical capsaicin
Description: Subjects: A chronic pain patient with hypersensitivity and a healthy volunteer were tested. Both subjects gave informed consent and the experiments were approved by the local institutional review board. The hairy skin of left hand was used for both volunteers. In preparing the subjects testing, they were asked to respond orally immediately after they perceived any threshold sensation and/or to interrupt lasing pulse by pressing STOP button. They then described the level and type of evoked sensation, location of sensation, how long the sensation lasted, whether the sensation was single (monomodal) sensation or if there were more than one evoked sensations by a single stimulation. Afterwards, the threshold pulse was applied 3 times to different areas with interval of ˜3 min or after the previous sensation (pain) had disappeared. The appearance redness was an indication of skin irritation. Step 1: To test duration of pulse that evoked threshold warmth sensation only, the output power was set to 1.5 W, beam size adjusted to 5 mm. The pulse was applied to the skin. When the volunteer reported warmth (pain) sensation the lasing was stopped. […] The pulse duration for tolerance for hot pain was 2000 ms. […] When this button was pushed the command “stop lasing” was activated, duration of applied pulse was measured and it was indicated on the screen of PC connected to the device by RS232 interface. […]

[2] = target: T1, TRPV1 (Rattus norvegicus, UniProt O35433); assay: Whole cell patch recording of diode laser evoked inward currents in TRPV1 positive (type 2) DRG cells; type: cell-based; conditions: capsazepine 10 uM, close superfusion, two minute application; laser pulses 20 ms and 2.41 W (1200 mA)
T1 construct: DRG cells TRPV1 positive cells (Type 2) and TRPV2 positive cells (Type 4) were irradiated; from tissue; host or cells: primary neurons dissociated from rat dorsal root ganglia (type 2 cells)
Description: Rats were anesthetized with halothane. Following decapitation, the spinal cord was rapidly removed, and the dorsal root ganglia were dissected free. Dissected ganglia were placed in a heated bath (35° C. for 70 min) containing dispase II and collagenase (2 mg/ml; Sigma type 1). Following wash and trituration, recovered cells were plated on 10 polylysine coated, 35 mm Petri dishes. Cells were bathed continuously in a rat Tyrode's solution containing (mM): 140 NaCl, 4 KCl, 2 MgCl2, 2 CaCl2, 10 glucose, and 10 HEPES, pH adjusted to 7.4 with NaOH. Only one cell was used from each dish. Bath temperature was maintained at 32° C. by a feedback-controlled bath heater (TCbip; Cell Microsystems).
Electrodes were prepared (2-4 MΩ) from glass pipettes using a Brown and Flaming type horizontal puller (Sutter model P87). Whole cell recordings were made with an Axopatch 200B (Axon Instruments). Stimuli were controlled and digital records captured with pClamp 8.2 software and Digidata 1322A A/D converter (Axon Instruments). Series resistance (Rs) was compensated 40-60% with Axopatch 200B compensation circuitry. Whole cell resistance and capacitance was determined by Clampex 8.2 software utility. A liquid junction potential of approximately 4 mV was not corrected.
Recordings were made from cells with diameters between 25 and 45 μm.
Lass 10 M investigational diode laser (Lasmed LLC) was used in all studies. […]

[3] = system: C fiber mediated pain; conditions: background statement; cited from earlier work

T1 sequence (O35433 whole entry, the tested form may be a part): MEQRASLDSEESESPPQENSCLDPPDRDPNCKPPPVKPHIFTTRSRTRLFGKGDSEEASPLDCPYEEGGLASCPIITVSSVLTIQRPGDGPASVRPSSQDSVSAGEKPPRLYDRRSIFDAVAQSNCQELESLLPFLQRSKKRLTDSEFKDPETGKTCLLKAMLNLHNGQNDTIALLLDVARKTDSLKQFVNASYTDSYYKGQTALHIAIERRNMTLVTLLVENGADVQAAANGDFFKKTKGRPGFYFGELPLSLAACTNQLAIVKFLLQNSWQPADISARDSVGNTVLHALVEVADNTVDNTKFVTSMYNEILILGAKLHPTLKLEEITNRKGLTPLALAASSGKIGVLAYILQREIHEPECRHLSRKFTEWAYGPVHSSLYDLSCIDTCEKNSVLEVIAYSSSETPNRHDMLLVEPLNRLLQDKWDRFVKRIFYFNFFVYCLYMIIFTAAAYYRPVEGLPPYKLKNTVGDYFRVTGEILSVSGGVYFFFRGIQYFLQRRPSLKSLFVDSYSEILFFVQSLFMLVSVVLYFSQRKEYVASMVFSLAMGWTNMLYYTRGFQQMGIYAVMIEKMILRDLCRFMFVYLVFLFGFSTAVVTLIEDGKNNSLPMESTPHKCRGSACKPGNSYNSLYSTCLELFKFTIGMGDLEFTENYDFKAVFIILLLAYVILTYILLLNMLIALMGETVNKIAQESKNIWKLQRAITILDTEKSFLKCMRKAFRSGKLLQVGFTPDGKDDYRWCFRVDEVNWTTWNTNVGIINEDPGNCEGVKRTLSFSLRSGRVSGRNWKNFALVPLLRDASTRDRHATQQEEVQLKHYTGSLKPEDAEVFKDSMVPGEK

For `COc1cc(CNC(=O)CCCC/C=C/C(C)C)ccc1O` [Capsaicin], the “threshold pulse duration by reflex time monitored with infrared CCD camera” value ([1]; 1.5 W, 5 mm, without delay of individual reaction (1270 ms without capsaicin)) was 650 ms and the “threshold pulse duration for hot pain” value ([1]; output power 1.5 W, beam size 5 mm, hairy skin of left hand, lasing stopped by volunteer (1300 ms without capsaicin)) was 800 ms.

In the case of `Oc1cc2c(cc1O)CN(C(=S)NCCc1ccc(Cl)cc1)CCC2` [capsazepine], the “currents evoked by 980 nm stimuli” value [2] is reported as “dramatically reduced; also recorded: reduced currents”.

In the case of `CN1CC[C@]23c4c5ccc(O)c4O[C@H]2[C@@H](O)C=C[C@H]3[C@H]1C5` [morphine], the “effectiveness in inhibiting C fiber mediated pain compared with A delta fiber mediated pain” value [3] is given as “much more effective”.
